# Patent US20170050045A1, “PHOTODYNAMIC THERAPY USING IN SITU NONLINEAR PHOTON UPCONVERSION OF NIR LIGHT BY BIOLOGICAL MEDIUM” (The Research Foundation for The State University Of New York, priority 2014, published 2017)
# Columns and labels:
# HeLa cells [1] = test: PDT phototoxicity in HeLa cells grown on collagen substrates, SHG excitation at 818 nm (detached and PI positive cells counted); assay type: cell-based
# Protocol: To verify the efficiency of the different nonlinear-optical conversion mechanisms for PDT excitation, cell cultured samples were used in different lay-outs permitting separation of the relative contribution of one specific nonlinear process. All experiments were made in a Petri dish through the bottom optical glass window in an inverted microscopy configuration. When cells were grown directly on the optical glass window, the pump and Stokes waves were synchronized with a zero delay and the beams were focused into the cell culture treated with the photosensitizer, CARS/FWM signals were generated by the natural intercellular biomolecules of proteins or lipids. In this case, the CARS/FWM conversion was also supplemented by the TPA process directly in the photosensitizer and a combination of CARS/FWM/TPA was obtained (see diagram 1 in FIG. 3a). To separate the TPA contribution, a pulse delay of ˜5 ps between the pump and the Stokes waves was introduced which disabled the CARS/FWM process. Therefore, with the pulse delay t, TPA of photosensitizer produced the dominant PDT effect (see diagram 2 in FIG. 3a). We used another lay-out in which cells were grown on a thin layer of polymerized collagen gel (ordered collagen structures). When the pump and Stokes laser beams were focused in collagen and had zero delay, SHG/FWM/SFG (sum frequency generation) nonlinear interactions occurred in the collagen layer (see diagram 3 in FIG. 3a). To selectively look at the SHG contribution, a pulse delay was introduced which disabled the FWM and SFG processes. The second harmonic signal generated by the collagen structure propagated to reach the cells treated with the photosensitizer, and efficiently absorbed by it to excite PDT (see diagram 4 in FIG. 3a). The dose of laser radiation delivered to the sample was estimated to be ˜60 J/cm^2 at 812.6 or 818.8 nm; ˜30 J/cm^2 at 1064 nm per scan, for CARS/FWM in proteins/lipids cellular environmental medium; and ˜60 J/cm^2 for SHG in polymerized collagen gels.
# Cell culture, drug treatment and PDT design. The process of PDT was modeled on the cultured HeLa cells. FIG. 3b diagrammatically illustrates the PDT procedure. HeLa cells were grown in Advanced DMEM (Life Technologies), supplemented with 2.5% fetal calf serum (FBS) (Sigma, St. Louis, Mo.), 1% glutamax (Life Technologies), 1% Antibiotic Antimycotic Solution (Sigma) at 37° C. in a humidified atmosphere containing 5% CO2. Prior to the incorporation of the photosensitizer and PDT experiments, cells were placed into glass-bottom dishes (MatTek, Ashland, Mass.). In the experiments involving SHG, the glass-bottom dishes were coated either with monomeric collagen (Sigma) or with collagen gels polymerized on the glass window. A stock solution of Chlorin-e6 was prepared in DMSO. The PDT process in the cultured cells was initiated by nonlinear optical excitation of the Chlorin-e6 photosensitizer, which was diluted to a final concentration of 90 μM in Advanced DMEM containing 15% FBS and 0.005% Tween 80. Cells were incubated with the drug for ninety minutes, thoroughly washed to remove unincorporated drug and subsequently used for optical exposure for PDT treatment.
# During the laser irradiation, cells were maintained at 37° C. and 5% CO2 in a Live-Cell incubator (Pathology Devices, Westminster, Md.) mounted on the microscope stage. Following the laser irradiation, the cells were incubated for 4 hours in a fresh regular medium at 37° C. […]
# HeLa cells [2] = test: PDT phototoxicity in cultured HeLa cells, CARS/FWM/TPA vs TPA excitation (calcein AM / propidium iodide staining); assay type: cell-based; details: 90 μM, 90 min incubation, average of four series
# From the text: Materials and Methods. Optical setup. The experimental setup used for the present nonlinear optical excitation of PDT utilized a custom made laser scanning microscopy system with two excitation NIR laser sources. A picosecond Nd:YVO4 laser (picoTRAIN IC-10000/532-4000, HighQ Laser) with pulse width ˜5 ps and a repetition rate of 76 MHz was used as the source for the Stokes wave ωs at the fundamental output of 1064 nm as well as for synchronous pumping of a tunable optical parametric oscillator (OPO, Levante Emerald, APE) by using its 532 second harmonic output with a pulse width of ˜4 ps. […] When the beating frequency ωp-ωs is tuned to be resonant with a vibrational mode of a selected molecular bond, the CARS signal together with its nonresonant electronic FWM background signal is detected at the anti-Stokes frequency of ωas=2ωp−ωs. Using our instrument setup, a sample can be excited and the imaged in the CARS/FWM mode in the vibrational frequency range of 900-3300 cm^−1 and simultaneously at 670-990 nm in the TPEF (two-photon excited fluorescence) or/and in the SHG mode. […] Thus, this experimental setup enables concurrent operation of the system in the PDT excitation mode as well as in the imaging mode (CARS/FWM/fluorescence) which is highly suitable for PDT process monitoring. […]
compound,measurement,setting,value
C=Cc1c(C)c2cc3nc(c(CC(=O)O)c4[nH]c(cc5nc(cc1[nH]2)C(C)=C5CC)c(C)c4C(=O)O)[C@@H](CCC(=O)O)[C@@H]3C [Chlorin e6],difference in phototoxicity between polymerized and monomeric collagen groups,"HeLa cells [1]; 50 scans, 818 nm, 3000 J/cm^2",tenfold
same,"detachment from the substrate, or positive PI staining of cells","HeLa cells [1]; cells on fibrillar (polymerized) collagen, 50 scans by 818 nm pulsed laser, 3000 J/cm^2, 90 μM",up to 50%
same,detached and PI positive cells,"HeLa cells [1]; cells on fibrillar collagen substrates, 75 scans, 818 nm, ~4500/cm^2, 90 μM",~70%
same,"cytotoxicity, by counting of the detached and PI positive cells","HeLa cells [1]; cells on monomeric collagen, 50 scans by 818 nm pulsed laser, 3000 J/cm^2, 90 μM",less than 5%
same,cells either detached or displayed PI stain,"HeLa cells [1]; cells on monomeric collagen, 75 scans, 818 nm, ~4500/cm^2, 90 μM",~35%
same,necrotic cells (PI positive cells),"HeLa cells [2]; CARS/FWM/TPA mode (zero pulse delay), 818 nm pump + 1064 nm Stokes, 70 scans, ~6300 J/cm^2",40%
same,necrotic cells (PI positive cells),"HeLa cells [2]; TPA mode (delayed pulses), same number of scans (70)",20%
